Data set [1] has as its system E. coli NST74. As to the kind of experiment: Assaying 2PE toxicity: growth challenge with exogenous 2PE. The class given is cell-based, Escherichia coli. Here is the method: Error bars reported at one standard deviation from triplicate experiments.
The effects of 2PE on E. coli growth rate and yield was determined by monitoring the impacts of its exogenous addition at increasing final concentrations on growing cultures. Approximately 1 ml of an E. coli NST74 seed culture was used to inoculate 50 ml of LB broth in a 250 mL shake flask. When cultures reached OD600˜0.6, 2PE was added to the flasks at an array of final concentrations ranging from 0 to 2 g/L. Culturing then resumed for an additional 6 h with periodic monitoring of OD600.
To assess if 2PE production in these initial strains was perhaps limited by end-product inhibition, a growth challenge study was performed determine to the response of E. coli growth to the addition of exogenous 2PE at a range of increasing final concentrations (FIG. 4).

The test system of data set [2] is E. coli. Conditions: prior report, Kang et al., 2014; cited from earlier work.
For data set [3], the target named is T1, ARO10 (Saccharomyces cerevisiae, UniProt Q06408).
T1 sequence (Q06408 1-635): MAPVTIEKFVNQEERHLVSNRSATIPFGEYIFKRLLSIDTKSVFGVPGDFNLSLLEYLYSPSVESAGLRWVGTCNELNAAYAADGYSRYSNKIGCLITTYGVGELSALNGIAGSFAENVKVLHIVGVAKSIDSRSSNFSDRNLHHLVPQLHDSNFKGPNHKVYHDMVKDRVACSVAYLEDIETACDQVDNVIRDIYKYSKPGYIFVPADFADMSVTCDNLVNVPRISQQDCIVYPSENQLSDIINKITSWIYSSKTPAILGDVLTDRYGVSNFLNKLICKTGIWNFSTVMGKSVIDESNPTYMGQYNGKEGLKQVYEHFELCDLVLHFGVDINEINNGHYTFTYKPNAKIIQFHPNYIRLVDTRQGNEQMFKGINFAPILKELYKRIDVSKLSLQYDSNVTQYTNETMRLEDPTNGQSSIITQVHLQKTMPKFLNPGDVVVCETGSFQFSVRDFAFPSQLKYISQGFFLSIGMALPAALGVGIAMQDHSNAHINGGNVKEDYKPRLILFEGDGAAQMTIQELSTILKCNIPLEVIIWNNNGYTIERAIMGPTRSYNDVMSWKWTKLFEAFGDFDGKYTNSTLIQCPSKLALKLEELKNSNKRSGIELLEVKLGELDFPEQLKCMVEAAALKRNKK
The note with it: ARO10 (PPDC), substrate phenylpyruvate; cited from earlier work.

The target of data set [4] is TyrB (Escherichia coli, UniProt P04693). Conditions: TyrB (Phe aminotransferase), substrate phenylpyruvate; cited from earlier work.
[5] abbreviates: exogenous 2PE added at OD600~0.6, LB broth, 6 h monitoring of OD600.

Sequence of TyrB (P04693 whole entry): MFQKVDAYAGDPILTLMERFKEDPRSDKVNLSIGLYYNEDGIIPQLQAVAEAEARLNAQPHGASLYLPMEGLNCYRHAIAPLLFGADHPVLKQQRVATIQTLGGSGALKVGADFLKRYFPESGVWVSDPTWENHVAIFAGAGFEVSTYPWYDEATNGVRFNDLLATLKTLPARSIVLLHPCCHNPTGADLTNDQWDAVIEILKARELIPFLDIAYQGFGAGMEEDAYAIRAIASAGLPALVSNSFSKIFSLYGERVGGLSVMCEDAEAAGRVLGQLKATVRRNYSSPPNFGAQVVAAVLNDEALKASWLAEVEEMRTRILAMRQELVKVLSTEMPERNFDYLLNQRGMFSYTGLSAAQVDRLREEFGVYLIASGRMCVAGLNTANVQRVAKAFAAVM

In data set [1] (E. coli growth), `OCCc1ccccc1` [2PE, 2-phenylethanol] displayed a toxicity threshold of around 2 g/L. Moreover, in data set [1] (setting [5]), the “2PE concentration at which growth rate and yield were reduced” value is listed as 1 g/L; the “2PE concentration at which severe growth inhibition occurred” value was “about 2 g/L”. For the same compound, the “level reported to inhibit E. coli” value in data set [2] is around 1000 µg/mL.

By Km is commonly meant the concentration of substrate that gives half-maximal velocity. For the compound `O=C(O)C(=O)Cc1ccccc1` [phenylpyruvate], the Michaelis constant (Km) was 100 µM in data set [3] and 12 µM in data set [4].
